This note sets out measurements from patent publication US20210002265A1, “PYRAZOLE DERIVATIVES AS INHIBITORS OF THE WNT SIGNALLING PATHWAY” (Université de Lausanne, priority 2018, published 2021).

Usually IC50 stands for the midpoint of a concentration-inhibition curve. A high value points to a need for much substance.

SMILES strings stand for the structures.

For data set [1], the system named is Wnt pathway (Wnt3a-stimulated) in BT-20 cells. The data set is described as follows: TOPFlash reporter assay, Wnt3a activation. In kind it is cell-based. Particulars: for Efficacy (%): average efficacy, BT-20 TOPFlash; for Efficacy (%) / IC50: Wnt3a 250 ng/ml; for IC50: average potency, BT-20 cells stably transfected with TOPFlash reporter. The text has this:
A commercial (ChemDiv Inc., San Diego, Calif., US) small molecule library (high-diversity GPCR-targeted compound library containing 1000 compounds selected by ChemDiv focusing on maximizing chemical diversity from the 40′000 GPCR-targeted compound library [see http://www.chemdiv.com, particularly http://www.chemdiv.com/gpcr-target-platform-library-2/]) containing 1000 compounds was screened for Wnt pathway inhibitory effect using the TOPflash assay. […] In a first round of screening, 34 randomly chosen compounds resembling compound 1, but presenting some intravariance were tested for their ability to inhibit the Wnt pathway, using the TOPFLash reporter assay.
(§1) For the screens, BT-20 cells, stably transfected with the TOPFlash reporter plasmid were seeded at 15K cells per well in white tissue-culture-treated 96-well plates (Greiner) and incubated overnight. If needed, the cells were additionally transfected with the pRL-CMV plasmid using the X-tremeGENE HP DNA transfection reagent (Roche) according to the manufacturer's protocol and again incubated overnight. […] The medium was then removed and 12 μl 10% sucrose solution was added to the cells to prevent drying. […] Data was analyzed using the Prism 6 Software (GraphPad).
On the technique in general: Reporter assays use an easily measured gene product as a stand-in for the process of interest.

The subject of data set [2] is Renilla luciferase expressed under control of CMV promoter. Particulars: FIG. 2. Here is the method:
(§2) Wnt-3a whole pathway activation (circle); LiCl activation of downstream elements only (square); Renilla, control for cell well-being (triangle).
as §1

For data set [3], the system named is Wnt pathway downstream part activated by LiCl. Particulars: LiCl activation, FIG. 2. As for the experimental part: as §2, §1
The subject of data set [4] is active β-catenin in HCC 1395 cells. The following applies: 50 μM, FIG. 4. Here is the method: (§3) Cells were seeded to 70-80% confluency in 12-well plates and incubated overnight. The medium was then changed for medium containing compound or DMSO and the cells pre-incubated for 1 h. […] After washing the cells with ice cold PBS, the cells were lysed by addition of 70 μl RIPA buffer (50 mM Tris pH 7.4, 1% Triton X-100, 0.1% SDS, 150 mM NaCl, 1 mM EDTA, 1 mM DTT, protease inhibitors (Roche)) containing phosphatase inhibitors if needed (4 mM NaF, 4 mM Imidazole, 2.3 mM Na2MoO4, 4 mM Na3VO4, 8 mM M C4H4Na2O6*2H2O, 2 mM Na4P2O7, 2 mM β-Glycerophosphate) and shaking 10 min on ice. The cell lysate was collected and centrifuged for 15 min at 16000 g at 4° C. to remove cell debris. The samples were equilibrated using the Bradford method and further separated and analyzed by SDS-PAGE and Western blot respectively.

Data set [5] has as its system cytoplasmic β-catenin in BT-20 cells. The following applies: 50 μM, Wnt3a or LiCl, FIG. 3. Here is the method:
as §3

Data set [6] deals with total β-catenin in L-cells. The following applies: 50 μM, FIG. 4. Here is the method: as §3
For another data set, the system named is DVL2 and DVL3 in L-cells. The following applies: 50 μM, FIG. 5. As for the experimental part: as §3
(§4) The effects of compound 1 on the upper-level phosphoprotein DVL was examined. The phosphoprotein DVL is phosphorylated on over 40 sites upon Wnt-pathway activation, which can be detected as a shift when analysed by electrophoresis.

The test system of the next data set is DVL2 in HCC 1395 cells. Particulars: 50 μM, FIG. 5. As for the experimental part: as §3, §4
A further data set deals with BT-20. Particulars: MTT, BT-20, 72 h. Here is the method: (§5) TNBC cell lines and were seeded at previously determined concentrations in 96-well plates and incubated for 24 h. The next day, the medium was replaced with medium containing either compound or the respective amount of DMSO for the controls. The proliferation was measured after 72 h, by addition of a solution of 1 mg/ml thiazolyl blue (Roth) in PBS, further incubation for 2 h-4 h at 37° C., and lysis of the cells by addition of 50 μl DMSO. The absorbance was read at 570 nm using the Victor3 Multilabel Counter (PerkinElmer).

The next data set deals with HCC 1395. The following applies: MTT, HCC 1395, 72 h. As for the experimental part:
as §5

The test system of the next data set is HCC 1806. Particulars: MTT, HCC 1806, 72 h. As for the experimental part:
as §5

For a further data set, the system named is MDA-MB 231. The following applies: MTT, MDA-MB 231, 72 h. Here is the method: as §5
In the next data set the test system is MDA-MB 468. Particulars: MTT, MDA-MB 468, 72 h. As for the experimental part: as §5
In a further data set the test system is TNBC cell lines. The following applies: different TNBC cell lines, FIG. 8. As for the experimental part: TNBC cell lines were seeded at previously determined concentrations in 6-well plates and incubated for 24 h. The cells were then treated with the compounds or DMSO only and the colony formation followed daily by visual inspection. Once the colonies were big enough (70-100 cells), the cells were fixed with a solution of 4% PFA in PBS pH 7.4. The colonies were then stained using a solution of 1% Crystal violet and images taken of the individual wells to count the number of colonies. The colony counting and analysis was done using ImageJ.

A short description of data set [7]: In vivo pharmacokinetic profiling and tissue analysis. Particulars: tumour bearing mice. Here is the method: An in vivo experiment was performed to get a rough ADME profile and a first impression of the tolerability of the compounds and to determine any acute toxicity. […] Blood samples were taken at regular intervals for studying the kinetics.
For data set [8] the following is noted: microsomal assay.

For `Cc1ccc2[nH]cc(CCNC(=O)CCc3cn(-c4ccccc4)nc3-c3ccc4c(c3)OCO4)c2c1` [Compound 1], the “suppression of Wnt3a-stimulated pathway activation” value in data set [1] (Wnt-3a whole pathway activation, FIG. 2) is on record as “efficient in specific suppression of the Wnt3a-stimulated pathway activation”. For the same compound, in data set [1], the “Efficacy (%)” value amounted to 86.3% and half-maximal inhibition (IC50) was put at 11 µM. Moreover, the “levels of Renilla luciferase (cell well-being control)” value in data set [2] was “not changing the levels of Renilla luciferase”. For the same compound, the “inhibition when downstream part of the pathway is activated by LiCl” value in [3] is listed as “do not inhibit”. In data set [4], the “active β-catenin levels” value is “decrease in the active-β catenin levels”. The “accumulation of cytoplasmic β-catenin” value in data set [5] is given as “essentially recapitulating the results obtained using TopFlash”. The “total β-catenin levels” value in [6] is recorded as “clear decrease”. For the same compound, the “DVL2 and DVL3 phosphorylation shift upon Wnt3a stimulation” value in the data set on DVL2 and DVL3 in L-cells is “clearly inhibited the shift”. Further, in the data set with DVL2 in HCC 1395 cells, the “DVL2 phosphorylation shift upon Wnt3a stimulation” value is on record as “clearly inhibited the shift”. In the data set with BT-20, the “Efficiency (%)” value came out at 90% and the IC50 was determined as 15 µM. In the data set on HCC 1395, the “Efficiency (%)” value amounted to 90% and the IC50 was found to be 8 µM. In the data set on HCC 1806, the “Efficiency (%)” value was determined as 79% and the IC50 is 18 µM. Also, in the data set with MDA-MB 231, the “Efficiency (%)” value came out at 63% and the midpoint of inhibition, the IC50, lay at 6 µM. For the same compound, in the data set with MDA-MB 468, the “Efficiency (%)” value is 93% and the IC50 was determined as 12 µM. Further, in the data set on TNBC cell lines, the colony formation result is reported as “inhibition of colony formation”. Moreover, in data set [7], the “mean concentration achieved in the breast” value is reported as “around 20 μM”; the “Tissue concentration, Breast” value worked out at 92.1 µM; the “Tissue concentration, Faeces” value is 0.1 µM; the “Tissue concentration, Intestine” value was found to be 44.0 µM. In [7], the “Tissue concentration, Liver” value came out at 136.9 µM; the “Tissue concentration, Lung” value worked out at 6.2 µM; the “Tissue concentration, Plasma” value was determined as 3.9 µM; the “Tissue concentration, Tumor” value stood at 154.3 µM. Further, in data set [7], the “Tissue concentration, Urine” value was 6.6 µM. Besides, in [8], the “CYP stability (% compound after 60 min)” value turned out to be 33% and the “CYP UGT stability (% compound after 60 min)” value is on record as 49%.
`O=C(CCc1cn(-c2ccccc2)nc1-c1ccc2c(c1)OCO2)NCCc1ccco1` [Compound 7]: in data set [1], the “Efficacy (%)” value stood at 85.0% and half-maximal inhibition (IC50) was put at 15.2 µM.
For `O=C(CCc1cn(-c2ccccc2)nc1-c1ccc2c(c1)OCO2)NCCc1ccccc1` [Compound 11] the same measures were 88.4% and 5.2 µM.
The like results for `O=C(CCc1cn(-c2ccccc2)nc1-c1ccc2c(c1)OCO2)NCCc1cccs1` [Compound 13] were, in that order, 77.0% and 6.5 µM.
As to `Cc1ccccc1Cn1cc(-c2ccncc2)cc1C(=O)N1CCN(c2ccccc2)CC1` [Compound 24], in [1], the “Efficacy (%)” value came to 94.8% and half-maximal inhibition (IC50) was put at 18.3 µM. For the same compound, in data set [7], the “mean concentration achieved in the breast” value is “around 8 μM”; the “Tissue concentration, Breast” value was found to be 8.6 µM; the “Tissue concentration, Faeces” value amounted to 0.1 µM; the “Tissue concentration, Intestine” value was found to be 0.3 µM. In [7], the “Tissue concentration, Liver” value was 0.3 µM; the “Tissue concentration, Lung” value was found to be 0.3 µM; the “Tissue concentration, Plasma” value was determined as 0.3 µM; the “Tissue concentration, Tumor” value was determined as 0.3 µM. Also, the “Tissue concentration, Urine” value in [7] was 0.1 µM. For the same compound, in [8], the “CYP stability (% compound after 60 min)” value was determined as 67% and the “CYP UGT stability (% compound after 60 min)” value is 76%.
Take `O=C(Nc1ccccc1)N1CCC(n2nc(-c3ccccc3)cc2-c2ccccc2)CC1` [Compound 26]: in [1], the “Efficacy (%)” value is listed as 72.7% and inhibition was half-maximal at 16.5 µM (IC50).
